The source made the active and inactive calls. The calls are words filed in the database; no cut-off is given here.
Assays:
[1] = biological target: T1, Prostaglandin E2 receptor EP3 subtype (Homo sapiens, UniProt P43115); experiment: Antagonist activity at human EP3c receptor expressed in human U2OS cells assessed as inhibition of PGE2-induced calcium mobilization after 24 hrs by FLIPR assay; assay type: functional, cell-based
T1 sequence (P43115 whole entry): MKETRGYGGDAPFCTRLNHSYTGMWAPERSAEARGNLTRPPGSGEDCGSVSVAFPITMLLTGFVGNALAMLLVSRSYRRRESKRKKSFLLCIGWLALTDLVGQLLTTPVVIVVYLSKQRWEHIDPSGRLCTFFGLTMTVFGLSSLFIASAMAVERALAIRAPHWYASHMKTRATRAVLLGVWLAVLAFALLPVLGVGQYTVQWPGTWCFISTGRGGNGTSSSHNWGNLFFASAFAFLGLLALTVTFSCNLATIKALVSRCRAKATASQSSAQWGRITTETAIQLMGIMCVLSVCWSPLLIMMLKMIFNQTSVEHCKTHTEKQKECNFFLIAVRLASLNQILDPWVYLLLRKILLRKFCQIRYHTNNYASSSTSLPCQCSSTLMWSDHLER

[2] = Drug metabolism in rat liver S9 fraction assessed as NADPH-dependent glutathione conjugate level at 10 uM after 30 mins by LC-MS/MS analysis; assay type: ADME, subcellular; settings: s9, 0.5 h
[3] = Drug metabolism in rat liver S9 fraction assessed as glutathione conjugate level at 10 uM after 30 mins by HPLC in absence of NADPH; assay type: ADME, subcellular; settings: s9, 0.5 h
[4] = biological target: T2, Prostaglandin E2 receptor EP3 subtype (Rattus norvegicus, UniProt P34980); experiment: Antagonist activity at rat EP3 receptor expressed in human U2OS cells co-expressing Gqi5 assessed as inhibition of PGE2-induced response after 24 hrs by FLIPR assay; assay type: functional, cell-based
T2 sequence (P34980 whole entry): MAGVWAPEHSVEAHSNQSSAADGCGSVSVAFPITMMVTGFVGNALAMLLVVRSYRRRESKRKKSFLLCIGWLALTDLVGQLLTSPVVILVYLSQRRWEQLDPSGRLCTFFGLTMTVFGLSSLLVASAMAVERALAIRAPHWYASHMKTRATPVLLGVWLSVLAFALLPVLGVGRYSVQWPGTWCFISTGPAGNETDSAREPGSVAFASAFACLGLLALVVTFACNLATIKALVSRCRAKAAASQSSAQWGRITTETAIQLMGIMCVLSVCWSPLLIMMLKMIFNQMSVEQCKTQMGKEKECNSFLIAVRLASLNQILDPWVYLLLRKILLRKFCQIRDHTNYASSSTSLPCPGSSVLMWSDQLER

[5] = Half life in Sprague-Dawley rat at 1 mg/kg, iv; assay type: ADME, organism-based; design: dose 1 mg/kg, route intravenous; settings: in vivo
[6] = Drug metabolism in human liver S9 fraction assessed as NADPH-dependent glutathione conjugate level at 10 uM after 30 mins by LC-MS/MS analysis; assay type: ADME, subcellular; settings: s9, 0.5 h
[7] = Drug metabolism in human liver S9 fraction assessed as glutathione conjugate level at 10 uM after 30 mins by HPLC in absence of NADPH; assay type: ADME, subcellular; settings: s9, 0.5 h
[8] = Oral bioavailability in Sprague-Dawley rat at 2 mg/kg; assay type: ADME, organism-based; settings: in vivo
[9] = test system: Rattus norvegicus; experiment: Dose-normalized AUC in Sprague-Dawley rat at 2 mg/kg, po; assay type: ADME, organism-based; design: dose 2 mg/kg, route oral; settings: in vivo
[10] = Clearance in Sprague-Dawley rat at 1 mg/kg, iv and 2 mg/kg, po; assay type: ADME, organism-based; settings: in vivo
[11] = test system: Rattus norvegicus; experiment: Inhibition of saline-induced bladder rhythmic contraction in anesthetized iv dosed Sprague-Dawley rat model; assay type: functional, organism-based
[12] = test system: Rattus norvegicus; experiment: Inhibition of GR63799-induced decrease in bladder capacity in conscious spontaneously hypertensive overactive bladder rat model at 0.3 mg/kg, id; assay type: functional, organism-based; design: dose 0.3 mg/kg; settings: Urinary bladder
[13] = test system: Rattus norvegicus; experiment: Inhibition of GR63799-induced decrease in bladder capacity in conscious spontaneously hypertensive overactive bladder rat model at 3 mg/kg, id; assay type: functional, organism-based; design: dose 3 mg/kg; settings: Urinary bladder
[14] = test system: Rattus norvegicus; experiment: Inhibition of acetic acid-induced decrease in bladder capacity in conscious spontaneously hypertensive overactive bladder rat model at 30 mg/kg, id; assay type: functional, organism-based; design: dose 30 mg/kg; settings: Urinary bladder
[15] = test system: Rattus norvegicus; experiment: Inhibition of GR63799-induced decrease in bladder capacity in conscious spontaneously hypertensive overactive bladder rat model at 30 mg/kg, id; assay type: functional, organism-based; design: dose 30 mg/kg; settings: Urinary bladder
[16] = Antagonist activity at dog EP3 receptor expressed in human U2OS cells co-expressing Gqi5 assessed as inhibition of PGE2-induced response after 24 hrs by FLIPR assay; assay type: functional, cell-based, Canis lupus familiaris
[17] = test system: Rattus norvegicus; experiment: Inhibition of PGE2-induced decrease in bladder capacity in conscious spontaneously hypertensive overactive bladder rat model at 30 mg/kg, id; assay type: functional, organism-based; design: dose 30 mg/kg; settings: Urinary bladder
[18] = biological target: T3, Prostaglandin E2 receptor EP1 subtype (Homo sapiens, UniProt P34995); experiment: Antagonist activity at EP1 receptor in human U2OS cells expressing Gqi5 assessed as inhibition of PGE2-induced response after 24 hrs by FLIPR assay; assay type: functional, cell-based
T3 sequence (P34995 whole entry): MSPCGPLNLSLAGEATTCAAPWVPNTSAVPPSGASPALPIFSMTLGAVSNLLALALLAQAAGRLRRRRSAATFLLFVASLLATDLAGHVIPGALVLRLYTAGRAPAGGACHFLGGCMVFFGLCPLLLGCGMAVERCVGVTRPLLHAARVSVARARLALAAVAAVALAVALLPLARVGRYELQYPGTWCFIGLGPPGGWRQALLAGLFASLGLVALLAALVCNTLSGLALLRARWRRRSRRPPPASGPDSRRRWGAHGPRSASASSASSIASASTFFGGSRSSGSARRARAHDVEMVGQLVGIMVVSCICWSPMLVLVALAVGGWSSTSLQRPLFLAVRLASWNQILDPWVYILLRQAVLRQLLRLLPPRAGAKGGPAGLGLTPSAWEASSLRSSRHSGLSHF

Ki [1]	Drug metabolism [2]	Drug metabolism [3]	Ki [4]	half-life [5]	Drug metabolism [6]	Drug metabolism [7]	bioavailability [8]	AUC/dose [9]	clearance [10]	Ki [18]	Structure (SMILES)	inhibition [11]	inhibition [12]	inhibition [13]	inhibition [14]	inhibition [15]	pKi [16]	inhibition [17]
0.02 µM	Not Active	Not Active	0.0126 µM	2.8 h	Not Active	Not Active	68%	1.8 µg·h/mL/mg/kg	6.3 mL/min/kg	–	Cc1ccc(-c2ccc(C3(C(C)C)OC(=O)NC3=O)c(=O)[nH]2)cc1C (centres undefined)	–	–	–	–	–	–	–
–	–	–	–	–	–	–	–	–	–	–	CC(C)C1(c2ccc(-c3ccc4ccccc4c3)[nH]c2=O)OC(=O)NC1=O (centres undefined)	Dose-dependent effect	inactive	Active	Active	Active	7.7	Active
0.2 µM	–	–	0.316 µM	5.1 h	–	–	32%	0.17 µg·h/mL/mg/kg	31 mL/min/kg	> 5.01 µM	O=C1NC(=O)C(c2ccc(-c3ccc4ccccc4c3)[nH]c2=O)O1 (centres undefined)	–	–	–	–	–	–	–

Reference: ChEMBL document CHEMBL2034937, “Novel 3-Oxazolidinedione-6-aryl-pyridinones as Potent, Selective, and Orally Active EP3 Receptor Antagonists” (ACS Med Chem Lett, 2010)
